# Measured values published in article PMC9374667 (Communications Biology, 2022).
# “And” between values parts separate entries of the source, which are not always exact repeats. Equal values may be shown once.
# Tests used:
# [1] = tested on: db/db mice; experiment: Body weight of db/db mice during 35-day treatment; type: in vivo; conditions: db/db mice
# Experimental: (§1) The lean wild type control and the db/db control mice were given equal vehicle volume (0.5% CMC-Na solution). All mice were monitored for food intake, body weight, and fasting blood glucose during the 35-day trial. Glucose tolerance test (GTT) and insulin resistance test (ITT) were performed at 4 and 5 weeks of treatment, respectively. Metabolic analysis was performed at 5 weeks of treatment. At the end of the study, blood samples were taken through the retroorbital venous sinus of mice, fat depots (brown fat, inguinal subcutaneous fat, epididymal fat, perirenal fat and mesenteric fat depot) were dissected, weighed, and immediately frozen in liquid nitrogen and stored at −80 °C until required. Weight of fat depots are expressed in percentage (fat depots weight /bodyweight * 100%).
# [2] = tested on: db/db mice; experiment: Serum CHO, TG, FFA, LDL-C, HDL-C and ADPN in the fasted state; type: in vivo; parameters: FFA (Figure 4g) / LDL-C (Figure 4h) / HDL-C (Figure 4i) / ADPN (Figure 4j): unit not given here; conditions: db/db mice
# Experimental: The serum was collected by centrifugation at 3000 × g at 4 °C for 15 min and stored at −80 °C until analysis. TG, TC, LDL-C, HDL-C, and FFA were routinely tested on a Chemray 240 automatic biochemical analyzer (Chemray 240, Shenzhen, China). Serum levels of mouse adiponectin, interleukin6 (IL-6), tumor necrosis factor-α (TNF-α) were measured using commercial enzyme-linked immunosorbent assay (ELISA) kits (Nanjing Jiancheng Bioengineering Institute, Nanjing, China) and according to the manufacturer’s instructions. The levels of IL-6, TNF-α in 3T3-L1 adipocyte culture supernatant were also detected by ELISA.
# [3] = tested on: db/db mice; experiment: Weekly fasting glucose levels of db/db mice; type: in vivo; conditions: for Weekly fasting glucose levels of db/db mice (Figure 5a): BBR 150mg/kg, individual mice 1-10, in mmol/L
# Experimental: as §1
# [4] = tested on: cAMP; experiment: cAMP levels in eWAT of db/db mice (isoproterenol); type: in vivo; parameters: cAMP levels in eWAT (Figure 4l): unit not given here
# Experimental: The epididymal adipose tissue was dissected, the fresh adipose tissue was weighed and rapidly rinsed with PBS. The adipose tissue was cut and incubated with isoproterenol (10 μM) for 2 h, and homogenized in a cold cleavage buffer to prepare the adipose tissue homogenate. Then the homogenate was centrifuged at 12,000 × g at 4 °C for 15 min, and the supernatant was collected. For 3T3-L1 adipocytes, the adipocytes were treated with or without 50 ng/ml TNF-α or 3 μg IKKε plasmid or 4 μM siIKKε for 24 h and then treated with or without 10 μM ISO or 10 μM BJ for 24 h. Then the cells were lysed in a petri dish, scraped off, and centrifuged at 12,000 × g at 4 °C for 15 min before the supernatant was collected.
# Glycerol or cAMP content in adipose tissue and 3T3-L1 adipocytes was determined by a glycerol assay kit (Nanjing Jiancheng Bioengineering Institute, Nanjing, China) or a mouse cAMP assay kit (Nanjing Jiancheng Bioengineering Institute, Nanjing, China). And concentrations were further standardized according to protein concentration.
# [5] = tested on: 3T3-L1 adipocytes; experiment: Oil Red O staining and lipid quantification; type: cell-based, Murine; conditions: Figure 7b; 10μM BBR; replicates;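 further: treatment added on day 8 of adipocyte differentiation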
# Experimental: Meanwhile, we conducted in vitro experiments to validate the role of BJ in adipocytes. […] These findings were similar to the results in vivo.
# Murine 3T3-L1 preadipocytes were the kind gift of Prof. Wenbin Shang and Prof. Xizhong Yu (Nanjing University of Chinese Medicine, China). Cells were cultured in Dulbecco’s modified Eagle’s medium (DMEM) supplemented with 10% (vol/vol) fetal bovine serum (FBS), 1% (vol/vol) penicillin/streptomycin in an incubator at 37 °C and 5% CO2 (until confluent). Two days after the preadipocytes reached 100% confluency (designated day 0), the cells were cultured in DMEM with 10% FBS supplemented with IBMX (0.5 mM final concentration), DEX (1 μM final concentration), and insulin (10 μg/ml final concentration) for 3 days (days 0–3). Then the cells were cultured in a medium containing insulin (10 μg/ml final concentration) for another 3 days (days 3–6).
# Lipid accumulation in differentiated adipocytes was observed by Oil Red O staining. The differentiated 3T3-L1 adipocytes were washed with PBS for 3 times and fixed with 4% paraformaldehyde for 30 min at room temperature. The fixed 3T3-L1 adipocytes were washed with PBS for 3 times and stained with Oil Red O solution at room temperature for 60 min. Stained lipid droplets were photographed and then eluted with 100% isopropanol stained Oil Red O. Finally, the optical density (OD) value of the eluent was measured at 510 nm wavelength with a microplate reader.
# [6] = tested on: db/db mice; experiment: Fat depots weight (BAT, iWAT, eWAT; percentage of body weight); type: in vivo; parameters: key to BAT fat depot weight (Figure 4c): % of body weight (fat depot weight / body weight * 100%); conditions: db/db mice
# Experimental: as §1
# [7] = BBR 150mg/kg, serum, individual mice 1-6
# [8] = 150 mg/kg, fasted state, individual mice
# [9] = vs vehicle, BJ 75 and 150 mg/kg, BBR 150 mg/kg, Ibu 150 mg/kg
# [10] = BBR 150mg/kg, individual mice 1-10, in %
smiles,measurement,setting,value
"COc1ccc2cc3[n+](cc2c1OC)CCc1cc2c(cc1-3)OCO2 [BBR, Berberine chloride dihydrate]",Body weight,"[1]; 150 mg/kg gavage once per day, day 1, individual mice, 150 mg/kg",41 grams and 40 grams and 42 grams and 36 grams and 39 grams and 37 grams
same,Body weight,"[1]; 150 mg/kg gavage once per day, day 4, individual mice, 150 mg/kg",40 grams and 41 grams and 37 grams and 39 grams
same,Body weight,"[1]; 150 mg/kg gavage once per day, day 7, individual mice, 150 mg/kg",42 grams and 43 grams and 37 grams and 38 grams and 39 grams and 41 grams
same,Body weight,"[1]; 150 mg/kg gavage once per day, day 10, individual mice, 150 mg/kg",42 grams and 43 grams and 44 grams and 38 grams and 39 grams and 40 grams
same,Body weight,"[1]; 150 mg/kg gavage once per day, day 13, individual mice, 150 mg/kg",43 grams and 44 grams and 38 grams and 39 grams and 41 grams
same,Body weight,"[1]; 150 mg/kg gavage once per day, day 16, individual mice, 150 mg/kg",45 grams and 43 grams and 44 grams and 38 grams and 39 grams and 42 grams and 41 grams
same,Body weight,"[1]; 150 mg/kg gavage once per day, day 19, individual mice, 150 mg/kg",44 grams and 43 grams and 37 grams and 40 grams and 42 grams
same,Body weight,"[1]; 150 mg/kg gavage once per day, day 22, individual mice, 150 mg/kg",42 grams and 45 grams and 41 grams and 39 grams and 43 grams and 44 grams
same,Body weight,"[1]; 150 mg/kg gavage once per day, day 25, individual mice, 150 mg/kg",42 grams and 46 grams and 43 grams and 38 grams and 39 grams and 44 grams and 40 grams and 45 grams
same,Body weight,"[1]; 150 mg/kg gavage once per day, day 28, individual mice, 150 mg/kg",44 grams and 47 grams and 43 grams and 39 grams and 45 grams and 46 grams
same,Body weight,"[1]; 150 mg/kg gavage once per day, day 31, individual mice, 150 mg/kg",46 grams and 48 grams and 49 grams and 41 grams and 42 grams and 47 grams and 43 grams and 45 grams
same,Body weight,"[1]; 150 mg/kg gavage once per day, day 34, individual mice, 150 mg/kg",48 grams and 46 grams and 50 grams and 51 grams and 43 grams and 47 grams and 45 grams
same,Average body weight gain,"[1]; 150 mg/kg gavage once per day, day 35, mean ± SD",7.6 ± 0.8 g
same,Body weight gain in 5 weeks,"[1]; 150 mg/kg gavage once per day, individual mice, 150 mg/kg",8 grams and 7 grams and 6 grams and 9 grams
same,Body weight compared with vehicle,"[1]; 5 weeks, BJ 75 and 150 mg/kg, BBR 150 mg/kg, Ibu 150 mg/kg",lower body weight than the db/db mice treated with the vehicle
same,ADPN (Figure 4j),[2]; [7],531.25 and 533.16 and 569.22 and 520.27 and 517.83 and 573.58
same,FFA (Figure 4g),[2]; [7],783.9 and 765.7 and 789.7 and 738.2 and 717.7 and 741.1
same,HDL-C (Figure 4i),[2]; [7],2.5 and 2.8 and 2.4 and 2.7 and 3
same,LDL-C (Figure 4h),[2]; [7],4.79 and 4.96 and 3.72 and 5.17 and 5.15
same,Serum CHO,[2]; [8],4 mmol/L and 4.5 mmol/L and 5.2 mmol/L and 4.6 mmol/L and 4.2 mmol/L
same,Serum TG,[2]; [8],1.66 mmol/L and 1.22 mmol/L and 1.5 mmol/L and 1 mmol/L and 0.96 mmol/L and 1.18 mmol/L
same,"Serum levels of CHO, TG, FFA and LDL-C",[2]; [9],decreased
same,Serum levels of HDL-C and adiponectin (ADPN),[2]; [9],increased
same,Weekly fasting glucose levels of db/db mice (Figure 5a),[3]; 1st of 6 weekly columns (time not given),17.4 and 11.5 and 21.8 and 12.0 and 11.7 and 15.7 and 14.9 and 17.1
same,Weekly fasting glucose levels of db/db mice (Figure 5a),[3]; 2nd of 6 weekly columns (time not given),26.2 and 16.0 and 21.2 and 18.4 and 15.0 and 21.3 and 21.6 and 19.3 and 16.9
same,Weekly fasting glucose levels of db/db mice (Figure 5a),[3]; 3rd of 6 weekly columns (time not given),23.6 and 18.7 and 19.5 and 20.6 and 21.5 and 23.7 and 13.1 and 20.7 and 20.5
same,Weekly fasting glucose levels of db/db mice (Figure 5a),[3]; 4th of 6 weekly (time not given),19.5 and 14.4 and 15.7 and 19.0 and 17.0 and 19.2 and 9.3 and 10.1 and 18.3 and 13.0
same,Weekly fasting glucose levels of db/db mice (Figure 5a),[3]; 5th of 6 weekly (time not given),18.5 and 10.1 and 10.6 and 12.8 and 13.2 and 9.4 and 10.5 and 8.4 and 10.7 and 13.3
same,Weekly fasting glucose levels of db/db mice (Figure 5a),[3]; 6th of 6 weekly (time not given),15.5 and 9.3 and 11.4 and 15.8 and 10.5 and 10.2 and 10.0 and 9.8 and 13.5
same,Fasting blood glucose level at the end of the treatment,"[3]; db/db mice, 150 mg/kg, vehicle rose from 14.4 ± 3.4 to 23.9 ± 3.4",11.6 ± 2.4 mmol/L
same,Blood (serum) glucose levels compared with vehicle,"[3]; db/db mice, BJ 75 and 150 mg/kg, BBR 150 mg/kg, Ibu 150 mg/kg",slowed the increase in glucose levels
same,cAMP levels in eWAT,"[4]; db/db mice, isoproterenol stimulation",increased the cAMP levels
same,cAMP levels in eWAT (Figure 4l),"[4]; db/db+ISO+BBR 150mg/kg, individual samples 1-6",0.3703 and 0.3189 and 0.32 and 0.3561 and 0.3523 and 0.3716
same,Oil Red O staining of differentiated 3T3-L1 adipocytes spectrophotometric analysis,[5],0.6307 O.D. and 0.6591 O.D. and 0.6319 O.D. and 0.6294 O.D. and 0.6584 O.D. and 0.6194 O.D.
same,BAT fat depot weight (Figure 4c),"[6]; BBR 150mg/kg, individual mice 1-10",2.4015 and 0.6109 and 1.4913 and 1.4054 and 1.8804 and 2.4038 and 1.1343 and 1.618 and 1.1772 and 2.0775
same,eWAT fat depot weight (Figure 4c),[6]; [10],2.6561 and 3.1311 and 2.7778 and 2.6199 and 2.8014 and 3.2406 and 2.7924 and 3.779 and 2.6477 and 2.5027
same,iWAT fat depot weight (Figure 4c),[6]; [10],3.5734 and 2.9857 and 2.7524 and 3.658 and 3.8567 and 3.8981 and 3.3728 and 3.0795 and 1.8382 and 2.8305
same,Fat depots weight / body weight,"[6]; 150 mg/kg for 35 days, individual mice, 150 mg/kg",19.7808% and 22.3551% and 14.9978% and 19.6619% and 20.7394% and 16.7296% and 16.0902% and 17.3833% and 23.2726% and 23.7021%
same,Fat depots weight compared with vehicle,"[6]; BJ 75 and 150 mg/kg, BBR 150 mg/kg, Ibu 150 mg/kg",lower fat depots weight than vehicle-treated db/db mice
